Reference: patent publication US6872749B2, “Method for supplying bioavailable methionine to a cow” (Adisseo Ireland Limited, priority 1998, dated 2005)

Assay: not given
Settings: bovine, in vivo
Procedure: Spot doses of the following amounts of the esters prepared as detailed above, equating to 50 g of methionine equivalent, were given to 2 cows in the manner described in Example 2(b1) above. • methyl ester of HMB: 64.8 g • ethyl ester of HMB: 74.8 g • isopropyl ester of HMB: 80.5 g • n-butyl ester of HMB: 96 g • cyclohexyl ester of HMB: 97.5 g • see butyl ester of HMB: 79 g The concentration of methionine and HMB was measured over a period of 27 hours.
56 g of methyl methioninate and 72 g of n-propyl methioninate (providing an equivalent 50 g of DL-methionine), prepared as detailed above, were supplied to two cows as a spot dose at 7.45 am just before the morning feed.
The ration given to the cows was distributed as two equal meals at 08.00 hours and 16.00 hours comprised 7 kg of hay and 2 kg concentrate.
Samples of blood were taken by jugular vein puncture 09.00, 10.00, 11.00, 13.00 and 15.00 hours on the day where the ester was given to the animal and at 09.00, 12.00 and 15.00 hours on the day before and two days after supply.
The plasma from each sample was isolated from the blood samples by centrifuging the blood at 3000 revs per minute for 10 minutes. The samples were stored in a freezer. The assay for methionine was carried out according to the standard procedure of Moore and Stein.
The results were plotted using the conventional AUC method wherein the areas under the curves are calculated to obtain the bioavailability values for each ester.

**Q.** With `CSCCC(O)C(=O)OC1CCCCC1` (stereo not shown) [cyclohexyl ester of HMB] as the compound, how does the Bioavailability read?
**A.** 20%

**Q.** Which Bioavailability does the source give for `CCCCOC(=O)C(O)CCSC` (stereo not shown) [n-butyl ester of HMB] here?
**A.** 17%

**Q.** For `CCC(C)OC(=O)C(O)CCSC` (stereo not shown) [Sec butyl ester of HMB], which Bioavailability is on record?
**A.** 31%

Assay: Bioavailability of esters of methionine after spot dose to cows (Example 2)
Format: in vivo, cow
Settings: 0 hours after administration; spot dose equivalent to 50 g methionine; 2 cows
Procedure: The bioavailability of the esters was evaluated.
The samples were stored in a freezer.
The procedure of (b1) was repeated using 72 g of methionine ethyl ester hydrochloride, prepared as detailed above
• cyclohexyl methioninate: 122 g • methionine methyl ester hydrochloride: 73 g • sec butyl methioninate: 72 g

**Q.** With `CCOC(=O)[C@H](CCSC)NC(C)=O` [ethyl N-acetyl methioninate] as the compound, how does the “[met] methionine concentration in blood plasma” value (shortened to “[met] methionine concentration”) read?
**A.** 0.26 mg/100 g of blood plasma

Same assay, conditions: 1 hour after administration; spot dose equivalent to 50 g methionine; 2 cows

**Q.** With `CCOC(=O)[C@H](CCSC)NC(C)=O` [ethyl N-acetyl methioninate] as the compound, how does the “[met] methionine concentration” value read?
**A.** 1.84 mg/100 g of blood plasma

Same assay, conditions: 2 hours after administration; spot dose equivalent to 50 g methionine; 2 cows

**Q.** With `CCOC(=O)[C@H](CCSC)NC(C)=O` [ethyl N-acetyl methioninate] as the compound, how does the “[met] methionine concentration” value read?
**A.** 1.97 mg/100 g of blood plasma

Same assay, conditions: 3 hours after administration; spot dose equivalent to 50 g methionine; 2 cows

**Q.** For `CCOC(=O)[C@H](CCSC)NC(C)=O` [ethyl N-acetyl methioninate], which “[met] methionine concentration” value is on record?
**A.** 1.53 mg/100 g of blood plasma

Same assay, conditions: 5 hours after administration; spot dose equivalent to 50 g methionine; 2 cows

**Q.** For `CCOC(=O)[C@H](CCSC)NC(C)=O` [ethyl N-acetyl methioninate], which “[met] methionine concentration” value is on record?
**A.** 1.12 mg/100 g of blood plasma

Same assay, conditions: 7 hours after administration; spot dose equivalent to 50 g methionine; 2 cows

**Q.** For `CCOC(=O)[C@H](CCSC)NC(C)=O` [ethyl N-acetyl methioninate], which “[met] methionine concentration” value is on record?
**A.** 0.86 mg/100 g of blood plasma

Same assay, conditions: 28 hours after administration; spot dose equivalent to 50 g methionine; 2 cows

**Q.** For `CCOC(=O)[C@H](CCSC)NC(C)=O` [ethyl N-acetyl methioninate], which “[met] methionine concentration” value is on record?
**A.** 0.36 mg/100 g of blood plasma

Same assay, conditions: AUC method; spot dose equivalent to 50 g methionine

**Q.** With `CCOC(=O)[C@H](CCSC)NC(C)=O` [ethyl N-acetyl methioninate] as the compound, how does the Bioavailability % read?
**A.** 20%

Same assay, conditions: bovine, in vivo

**Q.** With `CSCC[C@H](N)C(=O)OC(C)(C)C` [Tertiary butyl methioninate, tertiary butyl methioninate] as the compound, how does the “methionine equivalent provided to the cow by rumen absorption” value read?
**A.** approximately 80%

**Q.** And the “time after intake within which methionine is provided to the blood stream” value?
**A.** less than one

Same assay, conditions: bovine, in vivo, 0 h

**Q.** With `CCOC(=O)[C@@H](N)CCSC.Cl` [Methionine ethyl ester hydrochloride, methionine ethyl ester hydrochloride] as the compound, how does the “[met] methionine concentration” value read?
**A.** 0.36 mg/100 g of blood plasma

**Q.** With `COC(=O)[C@@H](N)CCSC.Cl` [Methionine methyl ester hydrochloride, methionine methyl ester hydrochloride] as the compound, how does the “[met] methionine concentration” value read?
**A.** 0.41 mg/100 g of blood plasma

**Q.** With `CSCC[C@H](N)C(=O)OC(C)(C)C` [Tertiary butyl methioninate, tertiary butyl methioninate] as the compound, how does the “[met] methionine concentration” value read?
**A.** 0.37 mg/100 g of blood plasma

Same assay, conditions: bovine, in vivo, 1 h

**Q.** Which “[met] methionine concentration” value does the source give for `CCOC(=O)[C@@H](N)CCSC.Cl` [Methionine ethyl ester hydrochloride, methionine ethyl ester hydrochloride] here?
**A.** 2.78 mg/100 g of blood plasma

**Q.** With `COC(=O)[C@@H](N)CCSC.Cl` [Methionine methyl ester hydrochloride, methionine methyl ester hydrochloride] as the compound, how does the “[met] methionine concentration” value read?
**A.** 1.96 mg/100 g of blood plasma

**Q.** For `CSCC[C@H](N)C(=O)OC(C)(C)C` [Tertiary butyl methioninate, tertiary butyl methioninate], which “[met] methionine concentration” value is on record?
**A.** 4.84 mg/100 g of blood plasma

Same assay, conditions: bovine, in vivo, 2 h

**Q.** With `CCOC(=O)[C@@H](N)CCSC.Cl` [Methionine ethyl ester hydrochloride, methionine ethyl ester hydrochloride] as the compound, how does the “[met] methionine concentration” value read?
**A.** 2.60 mg/100 g of blood plasma

**Q.** For `COC(=O)[C@@H](N)CCSC.Cl` [Methionine methyl ester hydrochloride, methionine methyl ester hydrochloride], which “[met] methionine concentration” value is on record?
**A.** 1.43 mg/100 g of blood plasma

**Q.** With `CSCC[C@H](N)C(=O)OC(C)(C)C` [Tertiary butyl methioninate, tertiary butyl methioninate] as the compound, how does the “[met] methionine concentration” value read?
**A.** 4.87 mg/100 g of blood plasma

Same assay, conditions: bovine, in vivo, 3 h

**Q.** Which “[met] methionine concentration” value does the source give for `CCOC(=O)[C@@H](N)CCSC.Cl` [Methionine ethyl ester hydrochloride, methionine ethyl ester hydrochloride] here?
**A.** 2.30 mg/100 g of blood plasma

**Q.** With `COC(=O)[C@@H](N)CCSC.Cl` [Methionine methyl ester hydrochloride, methionine methyl ester hydrochloride] as the compound, how does the “[met] methionine concentration” value read?
**A.** 1.27 mg/100 g of blood plasma

**Q.** For `CSCC[C@H](N)C(=O)OC(C)(C)C` [Tertiary butyl methioninate, tertiary butyl methioninate], which “[met] methionine concentration” value is on record?
**A.** 4.98 mg/100 g of blood plasma

Same assay, conditions: bovine, in vivo, 5 h

**Q.** Which “[met] methionine concentration” value does the source give for `CCOC(=O)[C@@H](N)CCSC.Cl` [Methionine ethyl ester hydrochloride, methionine ethyl ester hydrochloride] here?
**A.** 2.00 mg/100 g of blood plasma

**Q.** For `COC(=O)[C@@H](N)CCSC.Cl` [Methionine methyl ester hydrochloride, methionine methyl ester hydrochloride], which “[met] methionine concentration” value is on record?
**A.** 1.18 mg/100 g of blood plasma

**Q.** For `CSCC[C@H](N)C(=O)OC(C)(C)C` [Tertiary butyl methioninate, tertiary butyl methioninate], which “[met] methionine concentration” value is on record?
**A.** 4.39 mg/100 g of blood plasma

Same assay, conditions: bovine, in vivo, 7 h

**Q.** For `CCOC(=O)[C@@H](N)CCSC.Cl` [Methionine ethyl ester hydrochloride, methionine ethyl ester hydrochloride], which “[met] methionine concentration” value is on record?
**A.** 1.43 mg/100 g of blood plasma

**Q.** With `COC(=O)[C@@H](N)CCSC.Cl` [Methionine methyl ester hydrochloride, methionine methyl ester hydrochloride] as the compound, how does the “[met] methionine concentration” value read?
**A.** 1.22 mg/100 g of blood plasma

**Q.** With `CSCC[C@H](N)C(=O)OC(C)(C)C` [Tertiary butyl methioninate, tertiary butyl methioninate] as the compound, how does the “[met] methionine concentration” value read?
**A.** 4.19 mg/100 g of blood plasma

Same assay, conditions: bovine, in vivo, 28 h

**Q.** Which “[met] methionine concentration” value does the source give for `CCOC(=O)[C@@H](N)CCSC.Cl` [Methionine ethyl ester hydrochloride, methionine ethyl ester hydrochloride] here?
**A.** 0.38 mg/100 g of blood plasma

**Q.** Which “[met] methionine concentration” value does the source give for `COC(=O)[C@@H](N)CCSC.Cl` [Methionine methyl ester hydrochloride, methionine methyl ester hydrochloride] here?
**A.** 0.43 mg/100 g of blood plasma

**Q.** For `CSCC[C@H](N)C(=O)OC(C)(C)C` [Tertiary butyl methioninate, tertiary butyl methioninate], which “[met] methionine concentration” value is on record?
**A.** 0.76 mg/100 g of blood plasma

Same assay, conditions: bovine, in vivo, po

**Q.** For `CCOC(=O)[C@@H](N)CCSC.Cl` [Methionine ethyl ester hydrochloride, methionine ethyl ester hydrochloride], which Bioavailability % is on record?
**A.** 30%

**Q.** Which Bioavailability % does the source give for `COC(=O)[C@@H](N)CCSC.Cl` [Methionine methyl ester hydrochloride, methionine methyl ester hydrochloride] here?
**A.** 25%

**Q.** Which Bioavailability % does the source give for `CSCC[C@H](N)C(=O)OC(C)(C)C` [Tertiary butyl methioninate, tertiary butyl methioninate] here?
**A.** 80%
